Test results taken from PubChem BioAssay (NCI).
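Cultured in 96-well plates, cells were exposed to test compound for 48 hours across five concentrations. TGI marks complete inhibition of growth.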

test system: HT29 colon; experiment: DTP human tumour cell line panel, 48 h

SMILES	TGI
COc1cc(-c2cc(=O)c3c(OC)c(OC)c(OC)c(OC)c3o2)c(OC)c(OC)c1OC	> 100 µM
COc1nc(C(=O)NNC(=O)c2nc(OC)c3ccccc3c2-c2ccccc2)c(-c2ccccc2)c2ccccc12	> 100 µM
COc1cc(/C=C2\CCC(C)C3C2=NN(C(C)=O)C3c2cc(OC)c(OC)c(OC)c2)cc(OC)c1OC (configuration not stated)	> 100 µM
NC(=O)C(N)Cc1ccc(O)cn1 (configuration not stated)	> 100 µM
COC(=O)C(C)(NC(=O)C(CC(=O)OC(C)(C)C)NC(=O)OC(C)(C)C)c1ccccc1 (configuration not stated)	> 100 µM
COc1ccc2nc3ccc(OC)cc3c(S(=O)CCCl)c2c1 (configuration not stated)	4.39 µM

test system: IGROV1 ovarian; experiment: DTP human tumour cell line panel, 48 h

SMILES	TGI
O=Cc1ccc2c(c1)CC1(C2)Cc2ccc3c(c2C1)CCC3 (configuration not stated)	41.3 µM
C=C(C)C(CC=C(C)C)CC12CC(CC=C(C)C)C(C)(C)C(CC=C(C)C)(C(=O)C(Cc3ccc(O)c(O)c3)=C1O)C2=O (configuration not stated)	> 100 µM
CCC(=O)NC(Nc1cccc(F)c1C)(C(F)(F)F)C(F)(F)F	> 100 µM
CCCCCN=Cc1c(O)c(O)c(C(C)C)c2cc(C)c(-c3c(C)cc4c(C(C)C)c(O)c(O)c(C=NCCCCC)c4c3O)c(O)c12	87.4 µM
CCc1nc(N)nc(N)c1-c1ccc2nn(-c3ccccc3)[n+]([O-])c2c1	23.2 µM
O=C(O)/C=N\Nc1nc2ccccc2[nH]1	> 100 µM
Nc1nc(N)c2[nH]c(CNc3ccc(C(=O)O)cc3)nc2n1	> 100 µM
CNn1c(-c2ccccc2)n[nH]c1=O	> 100 µM
O=c1[nH]c(-c2ccc3ccccc3c2)nc2ccccc12	> 100 µM
COc1ccc(CC2c3cc(Oc4cc(CC5c6cc(OC)c(OC)cc6CCN5C)ccc4O)c(OC)cc3CCN2C)cc1 (configuration not stated)	16.2 µM
COc1ccc(C(C)NNC(=O)c2ccncc2)c(OC)c1 (configuration not stated)	> 100 µM
CC(C)(C)OC(=O)NCC(O)CNC(=O)OC(C)(C)C	> 100 µM
O=[N+]([O-])c1cc2oc(COc3ccccc3)nc2cc1Cl	> 100 µM
CC(C)(C)c1cc(C(P(=O)(c2ccccc2)c2ccccc2)P(=O)(c2ccccc2)c2ccccc2)cc(C(C)(C)C)c1O	5.74 µM
CCc1nc(N)nc(N)c1-c1ccc(Cl)c(Cl)c1	> 100 µM
NS(=O)(=O)c1nn2c(Br)c(-c3ccccc3)nc2s1	23.3 µM
CCN(CC)c1c(N(CC)CC)c(=O)c1=O	8.01 µM
CN(C)Cc1cc(C(=O)/C=C/c2ccc(Cl)cc2)cc(CN(C)C)c1O	29 µM
COc1cc(-c2cc(=O)c3c(OC)c(OC)c(OC)c(OC)c3o2)c(OC)c(OC)c1OC	> 100 µM
COc1nc(C(=O)NNC(=O)c2nc(OC)c3ccccc3c2-c2ccccc2)c(-c2ccccc2)c2ccccc12	> 100 µM
COc1cc(/C=C2\CCC(C)C3C2=NN(C(C)=O)C3c2cc(OC)c(OC)c(OC)c2)cc(OC)c1OC (configuration not stated)	9.7 µM
NC(=O)C(N)Cc1ccc(O)cn1 (configuration not stated)	> 100 µM
COC(=O)C(C)(NC(=O)C(CC(=O)OC(C)(C)C)NC(=O)OC(C)(C)C)c1ccccc1 (configuration not stated)	> 100 µM
COc1ccc2nc3ccc(OC)cc3c(S(=O)CCCl)c2c1 (configuration not stated)	6.87 µM

test system: MDA-MB-231 breast; experiment: DTP human tumour cell line panel, 48 h

SMILES	TGI
O=Cc1ccc2c(c1)CC1(C2)Cc2ccc3c(c2C1)CCC3 (configuration not stated)	14.2 µM
C=C(C)C(CC=C(C)C)CC12CC(CC=C(C)C)C(C)(C)C(CC=C(C)C)(C(=O)C(Cc3ccc(O)c(O)c3)=C1O)C2=O (configuration not stated)	> 100 µM
CCC(=O)NC(Nc1cccc(F)c1C)(C(F)(F)F)C(F)(F)F	> 100 µM
CCCCCN=Cc1c(O)c(O)c(C(C)C)c2cc(C)c(-c3c(C)cc4c(C(C)C)c(O)c(O)c(C=NCCCCC)c4c3O)c(O)c12	65.1 µM
CCc1nc(N)nc(N)c1-c1ccc2nn(-c3ccccc3)[n+]([O-])c2c1	25.5 µM
O=C(O)/C=N\Nc1nc2ccccc2[nH]1	> 100 µM
Nc1nc(N)c2[nH]c(CNc3ccc(C(=O)O)cc3)nc2n1	> 100 µM
CNn1c(-c2ccccc2)n[nH]c1=O	> 100 µM
O=c1[nH]c(-c2ccc3ccccc3c2)nc2ccccc12	> 100 µM
COc1ccc(CC2c3cc(Oc4cc(CC5c6cc(OC)c(OC)cc6CCN5C)ccc4O)c(OC)cc3CCN2C)cc1 (configuration not stated)	14.8 µM
COc1ccc(C(C)NNC(=O)c2ccncc2)c(OC)c1 (configuration not stated)	> 100 µM
CC(C)(C)OC(=O)NCC(O)CNC(=O)OC(C)(C)C	> 100 µM
O=[N+]([O-])c1cc2oc(COc3ccccc3)nc2cc1Cl	69.4 µM
CC(C)(C)c1cc(C(P(=O)(c2ccccc2)c2ccccc2)P(=O)(c2ccccc2)c2ccccc2)cc(C(C)(C)C)c1O	5.12 µM
CCc1nc(N)nc(N)c1-c1ccc(Cl)c(Cl)c1	> 100 µM
NS(=O)(=O)c1nn2c(Br)c(-c3ccccc3)nc2s1	15.9 µM
CCN(CC)c1c(N(CC)CC)c(=O)c1=O	15.8 µM
CN(C)Cc1cc(C(=O)/C=C/c2ccc(Cl)cc2)cc(CN(C)C)c1O	23.5 µM
COc1cc(-c2cc(=O)c3c(OC)c(OC)c(OC)c(OC)c3o2)c(OC)c(OC)c1OC	> 100 µM
COc1nc(C(=O)NNC(=O)c2nc(OC)c3ccccc3c2-c2ccccc2)c(-c2ccccc2)c2ccccc12	> 100 µM
COc1cc(/C=C2\CCC(C)C3C2=NN(C(C)=O)C3c2cc(OC)c(OC)c(OC)c2)cc(OC)c1OC (configuration not stated)	> 100 µM
NC(=O)C(N)Cc1ccc(O)cn1 (configuration not stated)	> 100 µM
COC(=O)C(C)(NC(=O)C(CC(=O)OC(C)(C)C)NC(=O)OC(C)(C)C)c1ccccc1 (configuration not stated)	> 100 µM
COc1ccc2nc3ccc(OC)cc3c(S(=O)CCCl)c2c1 (configuration not stated)	11.8 µM

test system: NCI-H23 lung; experiment: DTP human tumour cell line panel, 48 h

SMILES	TGI
O=Cc1ccc2c(c1)CC1(C2)Cc2ccc3c(c2C1)CCC3 (configuration not stated)	33.6 µM
C=C(C)C(CC=C(C)C)CC12CC(CC=C(C)C)C(C)(C)C(CC=C(C)C)(C(=O)C(Cc3ccc(O)c(O)c3)=C1O)C2=O (configuration not stated)	> 100 µM
CCC(=O)NC(Nc1cccc(F)c1C)(C(F)(F)F)C(F)(F)F	> 100 µM
CCCCCN=Cc1c(O)c(O)c(C(C)C)c2cc(C)c(-c3c(C)cc4c(C(C)C)c(O)c(O)c(C=NCCCCC)c4c3O)c(O)c12	> 100 µM
CCc1nc(N)nc(N)c1-c1ccc2nn(-c3ccccc3)[n+]([O-])c2c1	18.2 µM
O=C(O)/C=N\Nc1nc2ccccc2[nH]1	> 100 µM
Nc1nc(N)c2[nH]c(CNc3ccc(C(=O)O)cc3)nc2n1	> 100 µM
CNn1c(-c2ccccc2)n[nH]c1=O	> 100 µM
O=c1[nH]c(-c2ccc3ccccc3c2)nc2ccccc12	> 100 µM
COc1ccc(CC2c3cc(Oc4cc(CC5c6cc(OC)c(OC)cc6CCN5C)ccc4O)c(OC)cc3CCN2C)cc1 (configuration not stated)	15.4 µM
COc1ccc(C(C)NNC(=O)c2ccncc2)c(OC)c1 (configuration not stated)	> 100 µM
CC(C)(C)OC(=O)NCC(O)CNC(=O)OC(C)(C)C	> 100 µM
O=[N+]([O-])c1cc2oc(COc3ccccc3)nc2cc1Cl	40.8 µM
CC(C)(C)c1cc(C(P(=O)(c2ccccc2)c2ccccc2)P(=O)(c2ccccc2)c2ccccc2)cc(C(C)(C)C)c1O	7.3 µM
CCc1nc(N)nc(N)c1-c1ccc(Cl)c(Cl)c1	> 100 µM
NS(=O)(=O)c1nn2c(Br)c(-c3ccccc3)nc2s1	11.1 µM
CCN(CC)c1c(N(CC)CC)c(=O)c1=O	26.7 µM
CN(C)Cc1cc(C(=O)/C=C/c2ccc(Cl)cc2)cc(CN(C)C)c1O	39.4 µM
COc1nc(C(=O)NNC(=O)c2nc(OC)c3ccccc3c2-c2ccccc2)c(-c2ccccc2)c2ccccc12	> 100 µM
COc1cc(/C=C2\CCC(C)C3C2=NN(C(C)=O)C3c2cc(OC)c(OC)c(OC)c2)cc(OC)c1OC (configuration not stated)	> 100 µM
NC(=O)C(N)Cc1ccc(O)cn1 (configuration not stated)	> 100 µM
COC(=O)C(C)(NC(=O)C(CC(=O)OC(C)(C)C)NC(=O)OC(C)(C)C)c1ccccc1 (configuration not stated)	> 100 µM
COc1ccc2nc3ccc(OC)cc3c(S(=O)CCCl)c2c1 (configuration not stated)	36.1 µM

test system: OVCAR-3 ovarian; experiment: DTP human tumour cell line panel, 48 h

SMILES	TGI
O=Cc1ccc2c(c1)CC1(C2)Cc2ccc3c(c2C1)CCC3 (configuration not stated)	19.5 µM
C=C(C)C(CC=C(C)C)CC12CC(CC=C(C)C)C(C)(C)C(CC=C(C)C)(C(=O)C(Cc3ccc(O)c(O)c3)=C1O)C2=O (configuration not stated)	> 100 µM
CCC(=O)NC(Nc1cccc(F)c1C)(C(F)(F)F)C(F)(F)F	> 100 µM
CCCCCN=Cc1c(O)c(O)c(C(C)C)c2cc(C)c(-c3c(C)cc4c(C(C)C)c(O)c(O)c(C=NCCCCC)c4c3O)c(O)c12	65 µM
CCc1nc(N)nc(N)c1-c1ccc2nn(-c3ccccc3)[n+]([O-])c2c1	28.3 µM
O=C(O)/C=N\Nc1nc2ccccc2[nH]1	> 100 µM
Nc1nc(N)c2[nH]c(CNc3ccc(C(=O)O)cc3)nc2n1	> 100 µM
CNn1c(-c2ccccc2)n[nH]c1=O	> 100 µM
O=c1[nH]c(-c2ccc3ccccc3c2)nc2ccccc12	> 100 µM
COc1ccc(CC2c3cc(Oc4cc(CC5c6cc(OC)c(OC)cc6CCN5C)ccc4O)c(OC)cc3CCN2C)cc1 (configuration not stated)	15.1 µM
COc1ccc(C(C)NNC(=O)c2ccncc2)c(OC)c1 (configuration not stated)	> 100 µM
CC(C)(C)OC(=O)NCC(O)CNC(=O)OC(C)(C)C	> 100 µM
O=[N+]([O-])c1cc2oc(COc3ccccc3)nc2cc1Cl	48.2 µM
CC(C)(C)c1cc(C(P(=O)(c2ccccc2)c2ccccc2)P(=O)(c2ccccc2)c2ccccc2)cc(C(C)(C)C)c1O	5.41 µM
CCc1nc(N)nc(N)c1-c1ccc(Cl)c(Cl)c1	> 100 µM
NS(=O)(=O)c1nn2c(Br)c(-c3ccccc3)nc2s1	15.9 µM
CCN(CC)c1c(N(CC)CC)c(=O)c1=O	25.1 µM
CN(C)Cc1cc(C(=O)/C=C/c2ccc(Cl)cc2)cc(CN(C)C)c1O	10.8 µM
COc1nc(C(=O)NNC(=O)c2nc(OC)c3ccccc3c2-c2ccccc2)c(-c2ccccc2)c2ccccc12	> 100 µM
COc1cc(/C=C2\CCC(C)C3C2=NN(C(C)=O)C3c2cc(OC)c(OC)c(OC)c2)cc(OC)c1OC (configuration not stated)	> 100 µM
NC(=O)C(N)Cc1ccc(O)cn1 (configuration not stated)	> 100 µM
COC(=O)C(C)(NC(=O)C(CC(=O)OC(C)(C)C)NC(=O)OC(C)(C)C)c1ccccc1 (configuration not stated)	> 100 µM
COc1ccc2nc3ccc(OC)cc3c(S(=O)CCCl)c2c1 (configuration not stated)	6.24 µM

test system: SF-295 CNS; experiment: DTP human tumour cell line panel, 48 h

SMILES	TGI
O=Cc1ccc2c(c1)CC1(C2)Cc2ccc3c(c2C1)CCC3 (configuration not stated)	19.5 µM
C=C(C)C(CC=C(C)C)CC12CC(CC=C(C)C)C(C)(C)C(CC=C(C)C)(C(=O)C(Cc3ccc(O)c(O)c3)=C1O)C2=O (configuration not stated)	> 100 µM
CCC(=O)NC(Nc1cccc(F)c1C)(C(F)(F)F)C(F)(F)F	> 100 µM
CCc1nc(N)nc(N)c1-c1ccc2nn(-c3ccccc3)[n+]([O-])c2c1	63.5 µM
O=C(O)/C=N\Nc1nc2ccccc2[nH]1	> 100 µM
Nc1nc(N)c2[nH]c(CNc3ccc(C(=O)O)cc3)nc2n1	> 100 µM
CNn1c(-c2ccccc2)n[nH]c1=O	> 100 µM
O=c1[nH]c(-c2ccc3ccccc3c2)nc2ccccc12	> 100 µM
COc1ccc(CC2c3cc(Oc4cc(CC5c6cc(OC)c(OC)cc6CCN5C)ccc4O)c(OC)cc3CCN2C)cc1 (configuration not stated)	15.4 µM
COc1ccc(C(C)NNC(=O)c2ccncc2)c(OC)c1 (configuration not stated)	> 100 µM
CC(C)(C)OC(=O)NCC(O)CNC(=O)OC(C)(C)C	> 100 µM
O=[N+]([O-])c1cc2oc(COc3ccccc3)nc2cc1Cl	38.8 µM
CC(C)(C)c1cc(C(P(=O)(c2ccccc2)c2ccccc2)P(=O)(c2ccccc2)c2ccccc2)cc(C(C)(C)C)c1O	3.85 µM
CCc1nc(N)nc(N)c1-c1ccc(Cl)c(Cl)c1	> 100 µM
NS(=O)(=O)c1nn2c(Br)c(-c3ccccc3)nc2s1	22.6 µM
CCN(CC)c1c(N(CC)CC)c(=O)c1=O	> 100 µM
CN(C)Cc1cc(C(=O)/C=C/c2ccc(Cl)cc2)cc(CN(C)C)c1O	26 µM
